{
  "source": "patent US5840696A",
  "about": "(priority 1997, dated 1998)",
  "key": {"[1]": {"tested_on": "constitutive nitric oxide synthase (cNOS)", "test": "influence of L-NAME on urine flow rate responses in conscious rats"}, "[2]": {"target": "T1, central kappa-opioid receptors (Rattus norvegicus, UniProt P34975)", "T1 construct": "Anesthetized male Sprague-Dawley rats; from tissue; host or cells: central nervous system of conscious male Sprague-Dawley rats (in vivo, lateral cerebral ventricle injection)", "T1 sequence (P34975 whole entry)": "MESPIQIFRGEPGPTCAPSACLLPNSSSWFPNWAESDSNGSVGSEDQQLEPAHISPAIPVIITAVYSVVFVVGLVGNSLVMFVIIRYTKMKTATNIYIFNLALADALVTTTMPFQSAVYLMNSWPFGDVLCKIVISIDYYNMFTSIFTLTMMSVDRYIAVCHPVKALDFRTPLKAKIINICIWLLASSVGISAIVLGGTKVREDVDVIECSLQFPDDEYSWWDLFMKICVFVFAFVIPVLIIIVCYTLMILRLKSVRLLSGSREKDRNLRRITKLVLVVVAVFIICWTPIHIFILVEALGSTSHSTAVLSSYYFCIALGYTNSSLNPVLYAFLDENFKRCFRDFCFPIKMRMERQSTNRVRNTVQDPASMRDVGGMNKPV", "conditions": "1 μg i.c.v. pretreatment, previous investigations; cited from earlier work"}},
  "data": [
    {"smiles": "COC(=O)[C@@H](N)CCCNC(=N)N[N+](=O)[O-]", "note": "[L-NAME, L-nitro arginine methyl ester]", "values": [
      {"measurement": "baseline urine flow rate (V)", "setting": "[1]; 30 mg/Kg i.v.", "value": "did not alter baseline urine flow rate"}
    ]},
    {"smiles": "NS(=O)(=O)c1cc(C(=O)O)c(NCc2ccco2)cc1Cl", "note": "[furosemide]", "values": [
      {"measurement": "urine flow rate (V) response after L-NAME", "setting": "[1]; L-NAME pretreatment", "value": "did not alter urine flow rate"}
    ]},
    {"smiles": "Oc1ccc2c3c1O[C@H]1c4[nH]c5c(c4C[C@@]4(O)[C@@H](C2)N(CC2CC2)CC[C@]314)C[C@@]1(O)[C@H]2Cc3ccc(O)c4c3[C@@]1(CCN2CC1CC1)[C@H]5O4", "note": "[nor-binaltorphimine]", "values": [
      {"measurement": "effect on renal responses produced by i.c.v. U50,488H (1 μg)", "setting": "[2]", "value": "completely and selectively prevented"}
    ]}
  ]
}
